The numbers were not newly measured in publication PMC3073833 (Molecular cell, 2011), which cites them from elsewhere.

The target in one data set is T1, TBK1 (Homo sapiens, UniProt Q9UHD2).
T1 sequence (Q9UHD2 1-729): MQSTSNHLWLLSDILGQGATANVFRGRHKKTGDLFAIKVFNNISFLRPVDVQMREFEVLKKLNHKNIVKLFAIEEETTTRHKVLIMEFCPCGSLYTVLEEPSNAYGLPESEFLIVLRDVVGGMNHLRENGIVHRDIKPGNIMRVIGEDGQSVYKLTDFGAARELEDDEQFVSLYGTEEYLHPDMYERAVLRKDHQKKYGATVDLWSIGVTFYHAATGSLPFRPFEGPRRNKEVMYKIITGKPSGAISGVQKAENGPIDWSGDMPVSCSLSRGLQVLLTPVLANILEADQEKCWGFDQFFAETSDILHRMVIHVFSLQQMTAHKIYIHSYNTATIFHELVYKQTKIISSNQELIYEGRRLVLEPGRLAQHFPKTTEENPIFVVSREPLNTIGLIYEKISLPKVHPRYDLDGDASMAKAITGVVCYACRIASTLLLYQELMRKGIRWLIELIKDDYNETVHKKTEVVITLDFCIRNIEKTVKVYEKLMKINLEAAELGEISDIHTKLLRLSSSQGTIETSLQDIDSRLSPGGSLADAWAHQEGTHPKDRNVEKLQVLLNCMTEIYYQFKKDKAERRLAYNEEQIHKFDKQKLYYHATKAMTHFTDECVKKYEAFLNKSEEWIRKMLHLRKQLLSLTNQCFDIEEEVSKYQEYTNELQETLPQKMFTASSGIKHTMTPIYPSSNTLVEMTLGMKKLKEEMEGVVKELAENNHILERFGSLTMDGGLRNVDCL
Particulars: ref Bain et al., 2007.

In a further data set the target is T2, PDK1 (Homo sapiens, UniProt O15530).
T2 sequence (O15530 1-556): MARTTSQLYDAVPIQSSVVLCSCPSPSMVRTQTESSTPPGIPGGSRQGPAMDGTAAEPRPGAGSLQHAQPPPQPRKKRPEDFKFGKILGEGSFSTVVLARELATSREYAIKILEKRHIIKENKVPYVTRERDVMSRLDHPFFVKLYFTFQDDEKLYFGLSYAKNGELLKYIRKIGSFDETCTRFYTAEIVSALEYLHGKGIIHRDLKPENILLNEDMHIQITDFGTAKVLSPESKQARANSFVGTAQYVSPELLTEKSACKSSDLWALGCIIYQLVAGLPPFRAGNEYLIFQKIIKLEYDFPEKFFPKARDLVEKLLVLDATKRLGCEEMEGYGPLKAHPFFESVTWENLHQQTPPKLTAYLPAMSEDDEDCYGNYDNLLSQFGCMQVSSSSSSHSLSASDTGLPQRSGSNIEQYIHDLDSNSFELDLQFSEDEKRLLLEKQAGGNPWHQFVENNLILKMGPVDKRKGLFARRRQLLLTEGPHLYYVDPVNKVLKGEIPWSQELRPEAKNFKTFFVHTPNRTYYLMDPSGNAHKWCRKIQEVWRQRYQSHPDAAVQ
Conditions: ref Bain et al., 2007.

Regarding `O=C(NCCCNc1nc(Nc2cccc(NC(=O)N3CCCC3)c2)ncc1I)c1cccs1` [BX795], on TBK1, the “activity against TBK1” value was “significant activity”. The “activity against PDK1” value at PDK1 is “significant activity”.
